Source: patent US12275687B2 (priority 2017, dated 2025)
Numbering of substitutions follows the chain as printed.

Columns and labels:
BLT1-T4L [1] = experiment: Competition assay of ligands against ^3H-LTB4, BLT1-T4L expressed in P. pastoris; format: binding, guinea pig; conditions: for logIC50: log value (negative)
Excerpt: (§1) For the ligand binding assay of BLT1-T4Ls, the T4L cDNA was integrated into the cDNA, encoding the newly generated thermostable BLT1 mutant with the additional mutation V212A, by the consensus method (residues 1-14 deleted and H83G/K88G/V212A/S309A mutations), with the α-factor PrePro signal sequence and the FLAG tag at the N-terminal, and the PreScission site and the His6 tag at the C-terminal of BLT1 (Hori T. et al., 2010, supra) in the pPIC3.5K vector, using the In-Fusion enzyme (FIG. 7A). The expression vectors were introduced into the yeast Pichia pastoris using an EasyComp kit (Thermo Fisher Scientific). BLT1-T4Ls were expressed in 10 ml cultures, and the membrane fraction was prepared as described previously (Hori T. et al., 2010, supra; Hon T. et al., 2015, supra).
(§2) For the evaluation of the ligand-binding activity of the BLT1 mutants and BLT1-T4Ls, a ^3H-LTB4 binding assay was performed using the BLT1-expressing membrane fractions of COS-7, HEK293, or P. pastoris cells, as described previously (Hori T. et al., 2010, supra; Hori T. et al., 2015, supra). For the evaluation of the thermostability, the membrane fraction was heat-treated before the ^3H-LTB4 binding assay.

wild-type BLT1 = molecular target: T1, wild-type BLT1 (Cavia porcellus, UniProt H0VYV8); experiment: Competition binding of BIIL260 to 0.5 nM ^3H-LTB4, wild-type BLT1 in HEK293 membrane fraction; parameters: species or system guinea pig; conditions: WT
T1 construct: expressed in transfected cells; host or cells: HEK293 (membrane fraction)
Excerpt: (A) Structure of the BIIL260-binding site. BIIL260 and the BLT1 side chains within 4 Å from BIIL260 are represented by stick models, and transmembrane helices are depicted by thin ribbons. Sulfur atoms are colored gold. (B) Schematic representation of the BLT1-BIIL260 interaction. Intermolecular forces such as the salt bridge, hydrogen bonding, π-to-edge, CH-to-π, and hydrophobic interactions are indicated in red, blue, orange, violet, and green, respectively. The three non-identical residues in human BLT1 and BLT2, a cognate receptor of BLT1, are highlighted in green shaded boxes, and the corresponding residues of human BLT1 and BLT2 (hBLT1 and hBLT2, respectively) are also presented. (C) Competition binding assays of BIIL260 to 0.5 nM ^3H-LTB4, using the membrane fractions of HEK293 cells expressing the mutant and wild-type BLT1s. The mutations were introduced at the residues involved in the specific BIIL260 binding. Each point (±s.e.m.) indicates the mean value of two independent experiments, each with triplicate reactions. NS is non-specific binding measured with 0.5 μM LTB4. […]

BLT1 S106^3.39A mutant = molecular target: T2, BLT1 S106^3.39A mutant (Cavia porcellus, UniProt H0VYV8, S106A); experiment: Competition binding of BIIL260 to 0.5 nM ^3H-LTB4, BLT1 mutant in HEK293 membrane fraction; parameters: species or system guinea pig
T2 construct: expressed in transfected cells; host or cells: HEK293 (membrane fraction)
Excerpt: (§3) (A) Structure of the BIIL260-binding site. BIIL260 and the BLT1 side chains within 4 Å from BIIL260 are represented by stick models, and transmembrane helices are depicted by thin ribbons. Sulfur atoms are colored gold. (B) Schematic representation of the BLT1-BIIL260 interaction. Intermolecular forces such as the salt bridge, hydrogen bonding, π-to-edge, CH-to-π, and hydrophobic interactions are indicated in red, blue, orange, violet, and green, respectively. The three non-identical residues in human BLT1 and BLT2, a cognate receptor of BLT1, are highlighted in green shaded boxes, and the corresponding residues of human BLT1 and BLT2 (hBLT1 and hBLT2, respectively) are also presented. (C) Competition binding assays of BIIL260 to 0.5 nM ^3H-LTB4, using the membrane fractions of HEK293 cells expressing the mutant and wild-type BLT1s. The mutations were introduced at the residues involved in the specific BIIL260 binding. Each point (±s.e.m.) indicates the mean value of two independent experiments, each with triplicate reactions. NS is non-specific binding measured with 0.5 μM LTB4.
(§4) For the evaluation of the thermostabilities of guinea pig BLT1 mutants designed by the consensus method (FIG. 8A), point mutations were introduced using a QuikChange kit (Agilent) to the previously constructed thermostabilized BLT1 mutant cDNA (residues 1-14 deleted, H83G/K88G/S309A mutations, and an N-terminal FLAG-tag) in the pcDNA3 vector (Hori, T. et al., Protein Expr. Purif. 72 (2010) 66-74; Hori, T. et al., Biochem. Biophys. Rep. 4 (2015) 243-249). The expression vectors encoding the BLT1 mutants were transfected into COS-7 cells with Lipofectamine 2000. For the analysis of the BIIL260 binding residues of BLT1, point mutations were introduced, using the In-Fusion enzyme (Clontech), into the wild-type BLT1 cDNA with the N-terminal FLAG-tag in the pcDNA3 vector. The expression vectors were transfected into HEK293 cells, using polyethyleneimine. […] The BLT1 mutants were transiently expressed for three days at 37° C. The cells were washed with PBS, harvested with PBS-EDTA, disrupted with a sonicator, and centrifuged at 800×g for 5 min. The supernatant was further ultra-centrifuged at 100,000×g for 60 min, and the precipitate was collected.
as §2

BLT1 D66^2.50A mutant = molecular target: T3, BLT1 D66^2.50A mutant (Cavia porcellus, UniProt H0VYV8, D66A); experiment: as above; parameters: species or system guinea pig
T3 construct: expressed in transfected cells; host or cells: HEK293 (membrane fraction)
T3 sequence (H0VYV8 1-348 D66A): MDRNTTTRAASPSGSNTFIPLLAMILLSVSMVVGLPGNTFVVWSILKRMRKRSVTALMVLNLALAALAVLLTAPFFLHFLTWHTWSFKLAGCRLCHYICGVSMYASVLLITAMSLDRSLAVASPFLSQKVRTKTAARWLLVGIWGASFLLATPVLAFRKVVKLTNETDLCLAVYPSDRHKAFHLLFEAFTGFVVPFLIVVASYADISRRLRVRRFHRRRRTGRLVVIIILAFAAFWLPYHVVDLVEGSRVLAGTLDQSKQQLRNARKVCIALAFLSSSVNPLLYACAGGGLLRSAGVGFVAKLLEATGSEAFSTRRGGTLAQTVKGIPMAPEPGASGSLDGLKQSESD
Excerpt: as §3, §4, §2

BLT1 S276^7.45A mutant = molecular target: T4, BLT1 S276^7.45A mutant (Cavia porcellus, UniProt H0VYV8, S276A); experiment: as above; parameters: species or system guinea pig
T4 construct: expressed in transfected cells; host or cells: HEK293 (membrane fraction)
Excerpt: as §3, §4, §2

BLT1 V69^2.53A mutant = molecular target: T5, BLT1 V69^2.53A mutant (Cavia porcellus, UniProt H0VYV8, V69A); experiment: as above; parameters: species or system guinea pig
T5 construct: expressed in transfected cells; host or cells: HEK293 (membrane fraction)
T5 sequence (H0VYV8 1-348 V69A): T3 sequence (H0VYV8 1-348 D66A) with A66D, V69A
Excerpt: as §3, §4, §2

BLT1 L80^2.64A mutant = molecular target: T6, BLT1 L80^2.64A mutant (Cavia porcellus, UniProt H0VYV8, L80A); experiment: as above; parameters: species or system guinea pig
T6 construct: expressed in transfected cells; host or cells: HEK293 (membrane fraction)
Excerpt: as §3, §4, §2

BLT1 W236^6.48A mutant = molecular target: T7, BLT1 W236^6.48A mutant (Cavia porcellus, UniProt H0VYV8, W236A); experiment: as above; parameters: species or system guinea pig
T7 construct: expressed in transfected cells; host or cells: HEK293 (membrane fraction)
Excerpt: as §3, §4, §2

BLT1 [2] = molecular target: T8, BLT1 (Cavia porcellus, UniProt H0VYV8); experiment: Saturation binding assay of ^3H-LTB4 and BLT1 with various concentrations of benzamidine; parameters: expressed in transfected cells; host or cells: HEK293 (membrane fraction); species or system guinea pig; conditions: equilibrium dissociation constant of ^3H-LTB4, global fitting with benzamidine
Protocol: Each point (±s.e.m.) indicates the mean value of three independent experiments, each with triplicate reactions. […] Each point (±s.e.m.) indicates the mean value of three independent experiments, each with triplicate reactions. […] Each point (±s.e.m.) indicates the mean value of triplicate reactions. For the evaluation of the ligand-binding activity of the BLT1 mutants and BLT1-[…], a ^3H-LTB4 binding assay was performed using the BLT1-expressing membrane fractions of COS-7, HEK293, or P. pastoris cells, as described previously (Hori T. et al., 2010, supra; Hori T. et al., 2015, supra). For the evaluation of the thermostability, the membrane fraction was heat-treated before the ^3H-LTB4 binding assay.

BLT1 [3] = molecular target: T8, BLT1; experiment: TGFα shedding assay with benzamidine (G-protein activation by LTB4); format: cell-based; parameters: expressed in transfected cells; conditions: for logτA: agonist signaling efficacy; for KA / logKA: equilibrium dissociation constant of LTB4; for logKA: log value as printed; for Em: maximum possible signal response
Protocol: Each point (±s.e.m.) indicates the mean value of three independent experiments, each with triplicate reactions. […] Each point (±s.e.m.) indicates the mean value of three independent experiments, each with triplicate reactions. […] Each point (±s.e.m.) indicates the mean value of triplicate reactions. […] To determine the parameters, three steps of fitting procedures were performed.

BLT1-T4L [4] = experiment: Saturation binding of ^3H-LTB4, BLT1-T4L expressed in P. pastoris (membrane fraction); parameters: species or system guinea pig; conditions: saturation binding of ^3H-LTB4, ICL3-10 construct
Excerpt: as §1, §2

T4 sequence (H0VYV8 1-348 S276A): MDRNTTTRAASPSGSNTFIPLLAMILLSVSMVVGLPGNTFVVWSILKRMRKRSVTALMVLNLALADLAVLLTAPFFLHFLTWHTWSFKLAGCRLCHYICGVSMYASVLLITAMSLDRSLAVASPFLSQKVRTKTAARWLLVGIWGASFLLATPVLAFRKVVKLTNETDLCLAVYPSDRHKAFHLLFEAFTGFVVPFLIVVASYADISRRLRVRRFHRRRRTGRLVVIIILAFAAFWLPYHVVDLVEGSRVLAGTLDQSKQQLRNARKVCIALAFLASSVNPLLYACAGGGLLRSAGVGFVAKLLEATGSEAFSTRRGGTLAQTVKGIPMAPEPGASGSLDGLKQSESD
T8 sequence (H0VYV8 1-348): as the sequence (H0VYV8 1-348 S276A) above, with A276S counted along it
T2 sequence (H0VYV8 1-348 S106A): as the sequence (H0VYV8 1-348 S276A) above, with S106A, A276S counted along it
T7 sequence (H0VYV8 1-348 W236A): as the sequence (H0VYV8 1-348 S276A) above, with W236A, A276S counted along it
T6 sequence (H0VYV8 1-348 L80A): as the sequence (H0VYV8 1-348 S276A) above, with L80A, A276S counted along it
T1 sequence (H0VYV8 1-348): as the sequence (H0VYV8 1-348 S276A) above, with A276S counted along it

## CC(C)(c1ccc(O)cc1)c1ccc(OCc2cccc(COc3ccc(C(=N)N)cc3)c2)cc1 [BIIL260]
BLT1-T4L [1]
  Ki: 2.3 nM
  logIC50: −8.5
wild-type BLT1
  IC50: 30 nM
wild-type BLT1; log value (negative)
  logIC50: −7.5
BLT1 S106^3.39A mutant
  IC50: 12 nM
BLT1 S106^3.39A mutant; log value (negative)
  logIC50: −7.9
BLT1 D66^2.50A mutant; D66^2.50A
  logIC50 (IC50): No binding
BLT1 D66^2.50A mutant; D66^2.50A mutation
  BIIL260-binding ability: abrogated
BLT1 S276^7.45A mutant; S276^7.45A
  IC50: 124 nM
BLT1 S276^7.45A mutant; S276^7.45A mutation
  BIIL260-binding ability: decreased
BLT1 S276^7.45A mutant; S276^7.45A, log value (negative)
  logIC50: −6.9
BLT1 V69^2.53A mutant
  IC50: 33 nM
BLT1 V69^2.53A mutant; log value (negative)
  logIC50: −7.5
BLT1 L80^2.64A mutant
  IC50: 12 nM
BLT1 L80^2.64A mutant; log value (negative)
  logIC50: −7.9
BLT1 W236^6.48A mutant
  IC50: 62 nM
BLT1 W236^6.48A mutant; log value (negative)
  logIC50: −7.2

## CCCCC/C=C\C[C@@H](O)/C=C/C=C/C=C\[C@@H](O)CCCC(=O)O [LTB4, leukotriene B4]
BLT1-T4L [1]
  Ki: 0.67 nM
  logIC50: −9.0
BLT1 [2]
  Kd: 0.6 nM
BLT1 [3]; G16, Em = 20
  logτA: 0.076
BLT1 [3]; G16
  KA: (KA = 9.2 nM)
  logKA: −8.0
  Em: 27.6
BLT1 [3]; Gq/i1, in n = 1, Em = 25
  logτA: 0.82
BLT1 [3]; Gq/i1
  KA: (KA = 24 nM)
  logKA: −7.6
  Em: 26.7
BLT1-T4L [4]
  Kd: 1.2 ± 0.1 nM
